Test results from US9902761B2, “Polypeptides, nucleic acids and uses thereof” (AGENCY FOR SCIENCE, TECHNOLOGY AND RESEARCH, priority 2013, dated 2018).
Entries after “also recorded” stand apart in the source; their conditions may differ.

How the values were obtained:
hESCs [1] = experiment: xCELLigence real time growth assay, cell counts and colony size of hESCs; type: cell-based, human
Protocol: Feeder-free hESCs were cultured in clumps in mTSER1 (Stem Cell Technologies) on Matrigel (BD 354277).
hESCs were dissociated into single cells using Accutase (Stem Cell Technologies) and plated in the presence of 10 μM Y-27632 (ROCK inhibitor) for 12 hours (Watanabe et al., 2007).
For xCELLigence real time growth assays, 4000 cells were plated per well of an E-plate (ACEA Biosciences) with media changes every 48 hours.
Recombinant ELA was added at 2.5 uM (or 10 μg/ml). Cell cycle studies were performed with Click-iT EDU staining kit (Invitrogen) and by performing a double thymidine block (2.5 mM thymidine; 16 hour block, 8 hour release, 16 hour block) followed by DAPI staining for DNA content at the indicated times following release.

hESCs [2] = experiment: directed endoderm differentiation of hESCs, SOX17+ cell count; type: cell-based, human; conditions: 2.5 uM ELA peptide up to day 3, count on day 5
Protocol: Shef4TetR5-shELA and Shef4TetR5-shβ2M cells were cultured in the presence (shELA and shβ2M respectively) or absence (Control) of 20 ng/ml doxycycline for 1 passage (4 days) and dissociated with Accutase. […] 24 hours later, the media was changed to Endo differentiation media 1 [RPMI 1640 (Gibco), 1× B-27 supplement (Invitrogen), 50 ng/ml of Activin A (R&D Systems), 25 ng/ml BMP4 (R&D Systems) and 50 ng/ml bFGF (Invitrogen)] for 3 days. On day 3, the media was changed to Endo differentiation media 2 (RPMI 1640, B27, 50 ng/ml Activin) for 2 more days of culture. Rescue experiments were performed by adding 2.5 uM of ELA peptide to Shef4TetR5-shELA concurrently with doxycycline up to day 3, when the ELA peptide is no longer necessary as judged by downregulation of endogenous ELA.
On day 5, cells were fixed with 4% paraformaldehyde and stained with α SOX17 (AF1924, R&D Systems) and DAPI. For each well, three different randomly selected fields were imaged and the number of nuclei staining positive of SOXI 7 and DAPI were counted using a custom macro in ImageJ. A minimum of two wells per condition was used for each experiment, and a minimum of two independent experiments were performed to generate the results.

HIV-1 NL43 = experiment: HIV inhibition assay in P4C5 HeLa cells (β-gal activity); type: cell-based; conditions: CXCR4-tropic strain
hESCs [3] = experiment: insulin replacement assay in hESCs; type: cell-based, human
Protocol: For insulin replacement assays, SHEF4 or HESC3 hESCs were cultured in TSER-E5 (Stem Cell Technologies) supplemented with TGF-β (5 ng/ml, R&D Systems) and bFGF (100 ng/ml, Invitrogen) with and without INSULIN (10 ug/ml, SIGMA).

[4] = artherosclerosis, APELIN experiments repeated with ELABELA; type: in vivo
Excerpt: J Clin Invest 2008; 118:3343-54.
The experiments described in the above publication are repeated, with the replacement of APELIN with ELABELA.

[5] = hypertension, APELIN experiments repeated with ELABELA; conditions: in vivo
Excerpt: Regulatory Peptides. 2001; 99(2-3):87-92. • Cheng X, Cheng X S, Pang C C. […] European Journal of Pharmacology. […] Journal of the American College of Cardiology. 2008; 52(11):908-913.

[6] = erectile dysfunction, APELIN experiments repeated with ELABELA; conditions: in vivo
Excerpt: J Sex Med. 2013 Apr. 11. doi: 10.11 l/jsm.12158.

CXCR4 = CXCR4 (Homo sapiens, UniProt P61073); experiment: ELA receptor binding assay (ELA-AP) on 293T cells transfected with receptor; set-up: 293T cells transfected with plasmids encoding full-length ORFs of putative receptors; expressed in transfected cells; host or cells: 293T; conditions: ELA-AP conditioned medium, 3 hours
CXCR4, sequence (P61073 whole entry): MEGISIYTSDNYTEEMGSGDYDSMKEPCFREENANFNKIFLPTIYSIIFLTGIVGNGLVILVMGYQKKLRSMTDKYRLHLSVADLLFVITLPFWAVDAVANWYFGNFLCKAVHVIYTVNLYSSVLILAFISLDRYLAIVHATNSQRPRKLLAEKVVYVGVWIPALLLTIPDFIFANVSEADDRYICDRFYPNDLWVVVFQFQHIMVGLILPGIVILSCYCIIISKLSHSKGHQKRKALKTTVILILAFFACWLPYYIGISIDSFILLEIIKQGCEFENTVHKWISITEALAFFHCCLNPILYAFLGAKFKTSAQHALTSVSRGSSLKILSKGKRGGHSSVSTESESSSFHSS
Protocol: Secreted ELA-Alkaline Phosphatase (ELA-AP) was produced by transfecting a construct encoding ELA-AP into 293T cells, as described previously (Chng et al., 2013). Conditioned medium from ELA-AP expressing cells was then incubated for 3 hours with 293T cells transfected with plasmids encoding full-length ORFs of putative receptors. Unbound ELA-AP was washed away and cells were lysed with 1% Triton-X/PBS. Lysates were cleared and incubated with an AP substrate BCIP/NBT at 37° C. for 15 minutes. Optical density was read at 495 nm, and the intensity of blue coloration is directly proportional to the affinity of ELA-AP to the over-expressed receptor.

QRPVNLTMRRKLRKHNCLQRRCMPLHSRVPFP [ELA]
rescue of the growth of shELA hESCs (hESCs [1]; addition of recombinant peptide to shELA hESCs): entirely rescued to normal levels | concentration range in which the recombinant peptide is bioactive (hESCs [1]; hESCs): bioactive only in the μM range; also recorded: works in the μM range | rescue of SOX17+ endoderm differentiation of shELA hESCs (hESCs [2]): entirely rescued | inhibition of infection with HIV-1 NL43 (HIV-1 NL43): inhibits infection | concentration at which ELA inhibits HIV (HIV-1 NL43; HeLa cells, B-Gal activity after 36-48 hrs of infection): 10 to 40 µM | growth rescue of shELA hESCs under INSULIN deprivation (hESCs [3]): intermediate growth rescue | protection against artherosclerosis ([4]; Ang II): can protect against artherosclerosis | abdominal aortic aneurysm formation and rupture ([4]; in vivo): inhibit abdominal aortic aneurysm formation and rupture | blood pressure [5]: causes a reduction in blood pressure | erectile function [6]: significant restoration of erectile function | cell surface binding to CXCR4 (CXCR4): confers cell surface binding to ELA
